Experimental findings from EPA's ToxRefDB 2 are described below.

The structures appear in SMILES notation. Bounds are passed on as bounds.

The subject of data set [1] is rat. As to conditions: Chronic toxicity; fischer; Oral; Feed; dose end: 130 week; group: systemic; systemic / pathology microscopic / liver / hypertrophy + systemic / pathology microscopic / liver / necrosis.
The test system of data set [2] is mouse. As to conditions: Chronic toxicity, [Not Reported], Oral, Feed, dose end: 104 week, group: systemic.
Data set [3] has as its system rat. As to conditions: Developmental neurotoxicity study, sprague dawley, Oral, Gavage/Intubation, dose end: 80 PND, group: cannot be grouped.
The test system of data set [4] is rat. As to conditions: Subchronic oral toxicity in rodents, sprague dawley, Feed, dose end: 13 week, group: systemic, systemic / organ weight / uterus / relative to body weight.
In data set [5] the test system is dog. As to conditions: Subchronic oral toxicity in nonrodent, beagle, Feed, dose end: 14 week, group: systemic, systemic / organ weight / liver / absolute + systemic / organ weight / liver / relative to body weight.
For data set [6], the system named is rat. The note with it: Prenatal developmental toxicity study, other, Oral, Gavage/Intubation, dose end: 15 GD.
The subject of another data set is rabbit. The note with it: Prenatal developmental toxicity study, chinchilla, Oral, Gavage/Intubation, dose end: 18 GD.
Data set [7] relates to rat. The note with it: Multigenerational reproductive toxicity study, wistar, Oral, Feed, dose end: 2 generation.
The test system of data set [8] is mouse. The note with it: Carcinogenicity, b6c3f1, Oral, Feed, dose end: 24 month, group: systemic.
The test system of data set [9] is rat. As to conditions: Combined chronic toxicity/carcinogenicity, wistar, Oral, Feed, dose end: 24 month, group: systemic.
In data set [10] the test system is dog. The note with it: Chronic toxicity; beagle; Oral; Feed; dose end: 52 week; group: systemic; systemic / clinical chemistry / cholesterol / cholesterol + systemic / clinical chemistry / cytochrome p450, nos / cytochrome p450, nos.
Data set [11] relates to dog. As to conditions: Sub-acute repeat dose toxicity, beagle, Oral, Gavage/Intubation, dose end: 1 month, group: systemic.
In data set [12] the test system is rat. The note with it: Sub-acute repeat dose toxicity, sprague dawley, Oral, Gavage/Intubation, dose end: 29 day, group: systemic.
Data set [13] has as its system dog. The note with it: Sub-acute repeat dose toxicity; beagle; Oral; Gavage/Intubation; dose end: 29 day; group: systemic; systemic / in life observation / clinical signs / defecation (diarrhea) + systemic / in life observation / clinical signs / emesis + ….
For data set [14], the system named is dog. The note with it: Sub-acute repeat dose toxicity, beagle, Oral, Gavage/Intubation, dose end: 7 day, group: systemic.
The test system of data set [15] is rat. The note with it: Sub-acute repeat dose toxicity, sprague dawley, Oral, Gavage/Intubation, dose end: 13 day, group: systemic.
Data set [16] has as its system dog. The note with it: Sub-acute repeat dose toxicity, beagle, Oral, Gavage/Intubation, dose end: 10 day, group: systemic.
Data set [17] relates to rat. As to conditions: Sub-acute repeat dose toxicity; Oral; Gavage/Intubation; dose end: 10 day; group: systemic; systemic / in life observation / clinical signs / compulsive biting or licking + systemic / in life observation / clinical signs / ….
Data set [18] concerns dog. As to conditions: Sub-acute repeat dose toxicity, beagle, Oral, Capsule, dose end: 5 week, group: systemic.
Data set [19] concerns dog. The note with it: Other (NonGuideline or Guideline Not Listed); beagle; Oral; Capsule; dose end: 3 day; group: cannot be grouped; systemic / in life observation / clinical signs / emesis.
Where [20] appears, read: systemic / in life observation / food consumption / food consumption + systemic / organ weight / liver / absolute + systemic / organ weight….
Setting [21] is: systemic / in life observation / body weight / body weight + reproductive / reproductive performance / mating / mating.
Setting [22] is: systemic / in life observation / body weight / body weight + reproductive / reproductive performance / mating / mating + systemic / clinical….
The mark [23] stands for this setting: group: developmental, developmental / developmental malformation / bone / wavy.
[24] abbreviates: group: maternal, systemic / in life observation / body weight / body weight gain.
Setting [25] is: group: maternal, systemic / in life observation / body weight / body weight gain + systemic / in life observation / food consumption / food consumption.
Where [26] appears, read: group: developmental, developmental / developmental malformation / bone / absent + developmental / developmental malformation / bone / fused + developmental / ….
The mark [27] stands for this setting: group: maternal, systemic / in life observation / body weight / body weight gain + reproductive / reproductive performance / aborted / aborted + reproductive….
The mark [28] stands for this setting: group: offspring, systemic / in life observation / body weight / offspring (pup) weight.
Setting [29] is: group: parental, systemic / in life observation / body weight / body weight gain.
The mark [30] stands for this setting: systemic / in life observation / body weight / body weight + systemic / in life observation / body weight / body weight gain + systemic / in….
The mark [31] stands for this setting: systemic / pathology microscopic / thyroid gland / mineralization.
Setting [32] is: systemic / pathology microscopic / thyroid gland / mineralization + systemic / in life observation / body weight / body weight + systemic / ….
Setting [33] is: systemic / in life observation / clinical signs / defecation (diarrhea) + systemic / in life observation / clinical signs / feces, ….
Setting [34] is: systemic / in life observation / clinical signs / feces, discoloration.
Where [35] appears, read: systemic / in life observation / clinical signs / salivation + systemic / organ weight / liver / absolute + systemic / in life observation….
The mark [36] stands for this setting: systemic / in life observation / body weight / body weight + systemic / in life observation / food consumption / food consumption + systemic….
[37] abbreviates: systemic / in life observation / clinical signs / emesis.
The mark [38] stands for this setting: systemic / in life observation / body weight / body weight + systemic / in life observation / clinical signs / lacrimation + systemic / in ….
[39] abbreviates: systemic / organ weight / kidney / absolute + systemic / organ weight / liver / absolute + systemic / organ weight / spleen / absolute + ….
Setting [40] is: systemic / in life observation / body weight / body weight + systemic / in life observation / clinical signs / altered breathing rate + ….
The mark [41] stands for this setting: systemic / in life observation / clinical signs / salivation + systemic / in life observation / clinical signs / emesis.
The mark [42] stands for this setting: systemic / clinical chemistry / cholesterol / cholesterol + systemic / hematology / erythrocyte (rbc) count differential / erythrocyte (rbc….
[43] abbreviates: systemic / pathology microscopic / testes / degeneration.

Usually LOAEL stands for the lowest tested level that showed an adverse finding. One may read the NOAEL as the highest dose or exposure tested at which no adverse effect was seen. With `ClC1=C(Cl)C2(Cl)C3C(Cl)C(Cl)CC3C1(Cl)C2(Cl)Cl` (configuration not stated) [Chlordane, technical grade], the LEL stood at 0.045 mg/kg/day with rat [1], 0.15 mg/kg/day with mouse [2] (setting [20]) and 0.1 mg/kg/day in the data set with rat [3] (setting [21]). Besides, the results for the lowest-observed-adverse-effect level (LOAEL) in the data set with rat [1], in the data set on mouse [2] (systemic / pathology microscopic / liver / degeneration + systemic / pathology microscopic / liver / necrosis) and in the data set with rat [3] (setting [22]) were 0.045 mg/kg/day, 0.75 mg/kg/day and greater than 5 mg/kg/day, respectively. Besides, the values for the NEL in the data set on rat [1], in the data set on mouse [2] (setting [20]) and in the data set on rat [3] (setting [21]) were less than 0.045 mg/kg/day, less than 0.15 mg/kg/day and less than 0.1 mg/kg/day, respectively. The NOAEL with rat [1] was less than 0.045 mg/kg/day; in the data set with mouse [2] (systemic / pathology microscopic / liver / degeneration + systemic / in life observation / food consumption / food consumption + systemic / …) it was 0.15 mg/kg/day; in the data set with rat [3] (setting [22]), no less than 5 mg/kg/day.
In the case of `CCN(CC)C(=O)C(C)Oc1cccc2ccccc12` (configuration not stated) [Napropamide], in the data set with rat [4], the LEL is 50 mg/kg/day, the LOAEL stood at 50 mg/kg/day, the NEL stood at 25 mg/kg/day and the NOAEL amounted to 25 mg/kg/day. In addition, in the data set on dog [5], the LEL amounted to 100 mg/kg/day, the lowest-observed-adverse-effect level (LOAEL) was determined as 100 mg/kg/day, the NEL stood at 40 mg/kg/day and the NOAEL is 40 mg/kg/day.
As to `O=[N+]([O-])/N=C1\NCCN1Cc1ccc(Cl)nc1` [Imidacloprid], the LEL in the data set with rat [6] (setting [23]) came to 100 mg/kg/day; with rat [6] (setting [24]), 30 mg/kg/day; with rabbit (setting [26]) it was 72 mg/kg/day; in the data set on rabbit (setting [24]), 24 mg/kg/day; in the data set on rat [7] (setting [28]) it was 47.3 mg/kg/day; in the data set with rat [7] (setting [29]) it was 52.3 mg/kg/day. Further, the LEL in the data set on mouse [8] (systemic / in life observation / body weight / body weight gain) is 208 mg/kg/day; in the data set on rat [9] (setting [31]), 16.9 mg/kg/day; in the data set with dog [10], 72 mg/kg/day. Also, the LOAEL was 100 mg/kg/day with rat [6] (setting [23]); 30 mg/kg/day in the data set with rat [6] (setting [24]); 72 mg/kg/day in the data set on rabbit (setting [26]); 72 mg/kg/day in the data set on rabbit (group: maternal, systemic / in life observation / body weight / body weight gain + reproductive / reproductive performance / postimplantation loss / …); 47.3 mg/kg/day in the data set with rat [7] (setting [28]); 52.3 mg/kg/day with rat [7] (setting [29]). The LOAEL with mouse [8] (setting [30]) is 414 mg/kg/day; in the data set on rat [9] (setting [31]), 16.9 mg/kg/day; with dog [10], greater than 72 mg/kg/day. Also, the NEL with rat [6] (setting [23]) was 30 mg/kg/day; in the data set with rat [6] (setting [25]), 10 mg/kg/day; in the data set with rabbit (setting [26]) it was 24 mg/kg/day; with rabbit (setting [27]), 8 mg/kg/day; in the data set on rat [7] (setting [28]), 16.5 mg/kg/day; in the data set with rat [7] (setting [29]) it was 18.9 mg/kg/day. Moreover, the NEL with mouse [8] (setting [30]) amounted to 66 mg/kg/day; in the data set with rat [9] (setting [32]), 5.7 mg/kg/day; in the data set with dog [10], 15 mg/kg/day. Moreover, the NOAEL in the data set with rat [6] (setting [23]) came to 30 mg/kg/day; in the data set with rat [6] (setting [25]), 10 mg/kg/day; in the data set with rabbit (setting [26]), 24 mg/kg/day; in the data set with rabbit (setting [27]), 24 mg/kg/day; in the data set with rat [7] (setting [28]), 16.5 mg/kg/day; in the data set on rat [7] (setting [29]), 18.9 mg/kg/day. Besides, the no-observed-adverse-effect level (NOAEL) is 208 mg/kg/day in the data set on mouse [8] (setting [30]), 5.7 mg/kg/day with rat [9] (setting [32]) and no less than 72 mg/kg/day with dog [10].
For `COc1ccc(C(=O)Nc2nc3ccccc3c(NCc3ccccc3)c2C#N)cc1`, in the data set on dog [11] (setting [33]), the lowest observed adverse effect level (LOAEL) came to 1500 mg/kg/day and the no observed adverse effect level (NOAEL) was determined as 750 mg/kg/day. In the data set on dog [11] (setting [34]), this molecule returned an LEL of 300 mg/kg/day and an NEL of less than 300 mg/kg/day.
With `CN[C@H]1CC[C@@H](c2ccc(Cl)c(Cl)c2)c2ccc(S(N)(=O)=O)cc21`, the NEL with rat [12] (systemic / in life observation / clinical signs / salivation + systemic / organ weight / liver / absolute) is 20 mg/kg/day; in the data set on dog [13], less than 5 mg/kg/day; in the data set with dog [14] (setting [37]), 20 mg/kg/day; with rat [15] (setting [39]) it was less than 40 mg/kg/day. Also, the LEL with rat [12] (setting [35]) came out at 60 mg/kg/day; in the data set with dog [13] it was 5 mg/kg/day; with dog [14] (setting [37]) it was 40 mg/kg/day; with rat [15] (setting [39]), 40 mg/kg/day. For the same molecule, the lowest-observed-adverse-effect level (LOAEL) with rat [12] (setting [35]) was greater than 60 mg/kg/day; in the data set on dog [13], greater than 60 mg/kg/day; with dog [14] (setting [36]), greater than 160 mg/kg/day; with rat [15] (setting [38]) it was greater than 320 mg/kg/day. The NOAEL with rat [12] (setting [35]) was no less than 60 mg/kg/day; with dog [13] it was no less than 60 mg/kg/day; in the data set on dog [14] (setting [36]) it was no less than 160 mg/kg/day; in the data set on rat [15] (setting [38]), no less than 320 mg/kg/day.
`CC(N)c1cc(F)ccc1Oc1ccc(Cl)c(Cl)c1` (configuration not stated): in the data set with dog [16] (setting [40]), the lowest observed adverse effect level (LOAEL) is greater than 100 mg/kg/day and the no-observed-adverse-effect level (NOAEL) was no less than 100 mg/kg/day. Moreover, in the data set with dog [16] (setting [41]), the LEL came to 3 mg/kg/day and the NEL was less than 3 mg/kg/day. Besides, in the data set on rat [17], the LEL was 3 mg/kg/day, the LOAEL is greater than 150 mg/kg/day, the NEL was less than 3 mg/kg/day and the no-observed-adverse-effect level (NOAEL) was no less than 150 mg/kg/day.
As to `NC(=O)c1nc(-c2cccc(-c3cc(F)ccc3OCC(F)(F)C(F)(F)F)c2)n[n-]1.O.[K+]` [MK-274], in the data set with dog [18] (setting [42]), the LOAEL is greater than 450 mg/kg/day and the NOAEL is no less than 450 mg/kg/day. In the data set on dog [18] (setting [43]), this molecule came in with an LEL of 10 mg/kg/day and an NEL of less than 10 mg/kg/day. In the data set on dog [19], this molecule showed an LEL of 240 mg/kg/day, an LOAEL greater than 400 mg/kg/day, an NEL of less than 240 mg/kg/day and an NOAEL of no less than 400 mg/kg/day.
